The subject of this assay is Rhizoctonia solani. Briefly: Cucumber seed treatment test against Rhizoctonia solani (Test Example 4). It is filed as in vivo. As to conditions: cucumber seeds, seventh day after dissemination. The method, then:
5: Diameter of maculation: >20 mm Incidence of disease=Σ(Evaluation index of leaves checked)×100/(Number of total leaves checked) “Equation 1” Control value=100(A−B)/A “Equation 2” A: Incidence of disease of plant in untreated area B: Incidence of disease of plant in treated area Generally, the control value expected for the case where the given two kinds of active ingredient compounds are mixed and used for the treatment, the so-called control value expectation is calculated from the following Colby's calculating equation. […] They were allowed to grow in a greenhouse while irrigated and the number of non-budding seeds was checked on the seventh day after the dissemination and the incidence of disease was calculated by Equation 4. The control value was calculated by Equation 2 based on the incidence of disease. […]

The structures appear in SMILES notation.

Take `CN/C(=N\[N+](=O)[O-])NCc1cnc(Cl)s1` [Clothianidin, clothianidin]: the Actual control value (clothianidin alone 200 g/Seed 100 kg) came to 4%.

`CNC(=O)C(OC)c1ccccc1COc1cc(C)ccc1C` (racemic) [(1b)]: the Actual control value (compound (1b) alone 10 g/Seed 100 kg) came to 35%.

(Values after patent US8796176B2, “Pesticidal composition comprising an alpha-alkoxyphenyl acetic acid derivative and a neonicotinoid compound” (Sumitomo Chemical Company, Ltd, priority 2008, dated 2014).)
